Test results: patent US10670605B2, “Cysteine reactive probes and uses thereof” (The Scripps Research Institute, priority 2015, dated 2020)

Legend:
Test in all cases: Competitive isoTOP-ABPP in situ (fragment-treated cells)
Type in all cases: cell-based
[1] = biological target: cysteines in MDA-MB-231 and Ramos cells (Homo sapiens, UniProt P46109); conditions: 200 μM, insitu
[2] = biological target: T1, cysteines in MDA-MB-231 and Ramos cells (Homo sapiens, UniProt Q9P0J1)
T1 sequence (Q9P0J1 72-537): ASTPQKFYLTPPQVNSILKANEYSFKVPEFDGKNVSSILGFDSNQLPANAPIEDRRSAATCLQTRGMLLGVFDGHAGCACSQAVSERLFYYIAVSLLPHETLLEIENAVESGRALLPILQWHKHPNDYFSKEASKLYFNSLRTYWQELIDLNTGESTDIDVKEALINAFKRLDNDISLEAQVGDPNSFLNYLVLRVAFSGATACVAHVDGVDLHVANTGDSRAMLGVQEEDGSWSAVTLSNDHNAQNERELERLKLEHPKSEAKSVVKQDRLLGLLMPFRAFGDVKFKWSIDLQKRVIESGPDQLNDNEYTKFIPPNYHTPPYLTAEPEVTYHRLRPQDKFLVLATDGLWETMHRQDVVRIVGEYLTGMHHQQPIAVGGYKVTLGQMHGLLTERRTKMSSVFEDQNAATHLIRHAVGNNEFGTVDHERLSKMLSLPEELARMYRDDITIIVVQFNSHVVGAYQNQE

[3] = biological target: T2, cysteines in MDA-MB-231 and Ramos cells (Homo sapiens, UniProt Q2NL82)
T2 sequence (Q2NL82 1-804): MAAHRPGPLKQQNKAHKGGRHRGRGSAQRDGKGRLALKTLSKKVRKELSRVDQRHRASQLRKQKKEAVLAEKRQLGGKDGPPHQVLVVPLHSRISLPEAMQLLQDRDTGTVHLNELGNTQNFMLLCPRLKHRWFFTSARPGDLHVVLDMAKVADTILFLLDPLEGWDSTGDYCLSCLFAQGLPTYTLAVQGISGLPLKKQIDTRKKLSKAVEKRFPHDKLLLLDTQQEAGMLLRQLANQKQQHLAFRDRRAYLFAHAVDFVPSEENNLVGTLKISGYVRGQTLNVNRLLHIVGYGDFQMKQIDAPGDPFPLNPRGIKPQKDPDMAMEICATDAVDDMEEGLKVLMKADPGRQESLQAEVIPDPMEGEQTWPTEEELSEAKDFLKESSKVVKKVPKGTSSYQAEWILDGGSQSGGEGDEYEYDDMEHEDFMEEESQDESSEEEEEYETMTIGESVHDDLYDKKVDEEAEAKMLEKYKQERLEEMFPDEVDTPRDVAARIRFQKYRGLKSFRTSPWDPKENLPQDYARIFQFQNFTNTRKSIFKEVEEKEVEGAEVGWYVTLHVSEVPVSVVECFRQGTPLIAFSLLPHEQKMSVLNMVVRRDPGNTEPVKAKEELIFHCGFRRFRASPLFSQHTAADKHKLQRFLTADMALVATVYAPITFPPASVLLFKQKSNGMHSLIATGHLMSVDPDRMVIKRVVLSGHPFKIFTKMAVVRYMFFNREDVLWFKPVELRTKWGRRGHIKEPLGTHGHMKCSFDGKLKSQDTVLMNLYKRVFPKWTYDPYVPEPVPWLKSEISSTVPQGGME

[4] = biological target: T3, cysteines in MDA-MB-231 and Ramos cells (Homo sapiens, UniProt Q9NQ88)
T3 sequence (Q9NQ88 1-270): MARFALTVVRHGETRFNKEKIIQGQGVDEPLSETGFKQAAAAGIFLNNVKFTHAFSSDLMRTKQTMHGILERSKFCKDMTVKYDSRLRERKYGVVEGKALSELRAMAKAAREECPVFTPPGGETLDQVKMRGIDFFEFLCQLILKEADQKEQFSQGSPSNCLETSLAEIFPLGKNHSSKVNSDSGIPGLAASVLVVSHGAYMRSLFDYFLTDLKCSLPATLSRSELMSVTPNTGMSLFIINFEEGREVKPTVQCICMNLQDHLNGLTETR

[5] = biological target: T4, cysteines in MDA-MB-231 and Ramos cells (Homo sapiens, UniProt O43175); conditions: 200 μM, insitu; for isoTOP-ABPP ratio, cysteine O43175_C369: ramos
T4 sequence (O43175 1-533): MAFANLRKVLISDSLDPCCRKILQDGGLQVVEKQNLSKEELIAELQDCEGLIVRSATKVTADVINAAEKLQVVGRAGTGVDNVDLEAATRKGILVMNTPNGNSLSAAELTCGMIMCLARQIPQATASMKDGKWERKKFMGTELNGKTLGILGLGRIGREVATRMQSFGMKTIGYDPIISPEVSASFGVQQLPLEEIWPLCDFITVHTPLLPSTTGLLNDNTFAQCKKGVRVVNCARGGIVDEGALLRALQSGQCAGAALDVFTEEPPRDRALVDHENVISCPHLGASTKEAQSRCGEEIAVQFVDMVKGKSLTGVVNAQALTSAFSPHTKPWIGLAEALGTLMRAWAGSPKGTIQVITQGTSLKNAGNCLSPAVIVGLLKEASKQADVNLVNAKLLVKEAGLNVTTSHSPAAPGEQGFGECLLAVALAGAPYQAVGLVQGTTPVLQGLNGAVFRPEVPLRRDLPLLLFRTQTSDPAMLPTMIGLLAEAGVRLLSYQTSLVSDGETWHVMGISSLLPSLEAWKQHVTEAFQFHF

[6] = biological target: T5, cysteines in MDA-MB-231 and Ramos cells (Homo sapiens, UniProt Q96RS6)
T5 sequence (Q96RS6 1-583): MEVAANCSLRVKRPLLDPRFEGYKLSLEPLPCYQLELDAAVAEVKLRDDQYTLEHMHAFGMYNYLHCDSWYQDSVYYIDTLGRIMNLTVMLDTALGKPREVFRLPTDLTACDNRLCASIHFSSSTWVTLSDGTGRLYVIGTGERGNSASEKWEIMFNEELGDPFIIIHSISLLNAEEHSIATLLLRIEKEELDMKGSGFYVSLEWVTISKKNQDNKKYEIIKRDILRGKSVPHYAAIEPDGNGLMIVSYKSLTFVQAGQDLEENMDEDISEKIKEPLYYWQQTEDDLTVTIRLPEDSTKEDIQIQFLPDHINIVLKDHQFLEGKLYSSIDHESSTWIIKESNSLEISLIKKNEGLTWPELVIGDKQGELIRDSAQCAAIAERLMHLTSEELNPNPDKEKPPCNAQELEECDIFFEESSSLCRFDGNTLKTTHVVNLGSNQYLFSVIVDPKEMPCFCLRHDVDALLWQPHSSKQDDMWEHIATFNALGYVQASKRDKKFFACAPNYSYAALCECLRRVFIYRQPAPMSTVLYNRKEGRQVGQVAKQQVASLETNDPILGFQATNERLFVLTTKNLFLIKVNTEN

[7] = biological target: cysteines in MDA-MB-231 and Ramos cells (Homo sapiens, UniProt Q9BRF8)
Sequence of cysteines in MDA-MB-231 and Ramos cells (Homo sapiens, UniProt Q9BRF8) (Q9BRF8 whole entry): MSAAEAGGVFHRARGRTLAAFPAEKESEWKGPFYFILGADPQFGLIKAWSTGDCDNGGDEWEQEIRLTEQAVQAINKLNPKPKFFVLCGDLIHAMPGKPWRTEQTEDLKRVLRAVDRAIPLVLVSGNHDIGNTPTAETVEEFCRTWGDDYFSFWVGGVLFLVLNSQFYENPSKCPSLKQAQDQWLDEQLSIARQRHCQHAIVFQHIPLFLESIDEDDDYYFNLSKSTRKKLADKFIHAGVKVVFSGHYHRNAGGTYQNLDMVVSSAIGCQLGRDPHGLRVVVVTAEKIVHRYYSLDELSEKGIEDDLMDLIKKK

Sequence of cysteines in MDA-MB-231 and Ramos cells (Homo sapiens, UniProt P46109) (P46109 whole entry): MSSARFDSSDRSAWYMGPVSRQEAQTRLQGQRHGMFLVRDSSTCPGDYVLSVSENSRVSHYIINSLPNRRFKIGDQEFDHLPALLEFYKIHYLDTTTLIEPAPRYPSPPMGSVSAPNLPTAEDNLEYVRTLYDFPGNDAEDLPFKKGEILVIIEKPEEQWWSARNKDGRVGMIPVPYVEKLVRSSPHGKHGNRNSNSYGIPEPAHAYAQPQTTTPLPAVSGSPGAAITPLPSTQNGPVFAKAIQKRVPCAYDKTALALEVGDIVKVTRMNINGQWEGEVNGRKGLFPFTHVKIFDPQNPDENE

## COc1ccc2c(c1)CCCN2C(=O)CCl [compound 2]
[1]; 231
  isoTOP-ABPP reactivity P46109_0249 CRKL: 20.0
[2]; 200 μM, insitu, 231
  isoTOP-ABPP reactivity Q9P0J1_C149 PDP1: 20.0
[3]; 200 μM, insitu, 231
  isoTOP-ABPP reactivity Q2NL82_C126 TSR1: 20.0
[4]; 200 μM, insitu, 231
  isoTOP-ABPP reactivity Q9NQ88_C114 TIGAR: 2.8
  isoTOP-ABPP reactivity Q9NQ88_C161 TIGAR: 6.0
[5]; 231
  isoTOP-ABPP reactivity O43175_C369 PHGDH: 20.0

## COc1ccc(C2CC(c3cccs3)=NN2C(=O)CCl)cc1 (stereo not drawn) [compound 4]
[6]; 100 μM in situ 231
  isoTOP-ABPP reactivity Q96RS6_C376 NUDCD1: 1.6
[7]; 100 μM in situ 231
  isoTOP-ABPP reactivity Q9BRF8_C54 CPPED1: 20.0
[3]; 100 μM in situ 231
  isoTOP-ABPP reactivity Q2NL82_C126 TSR1: 13.8

## O=C(CCl)N1CCC(Cc2ccccc2)CC1 [compound 9]
[6]; 200 μM, insitu, 231
  isoTOP-ABPP reactivity Q96RS6_C376 NUDCD1: 2.2
[1]; 231
  isoTOP-ABPP reactivity P46109_0249 CRKL: 6.7
[7]; 200 μM, insitu, 231
  isoTOP-ABPP reactivity Q9BRF8_C54 CPPED1: 2.4
[4]; 200 μM, insitu, 231
  isoTOP-ABPP reactivity Q9NQ88_C114 TIGAR: 1.9
  isoTOP-ABPP reactivity Q9NQ88_C161 TIGAR: 2.6

## O=C(CCl)N1CCN(S(=O)(=O)c2ccccc2F)CC1 [compound 10]
[6]; 200 μM, insitu, 231
  isoTOP-ABPP ratio Q96RS6_C376: 5.7
[1]; 231
  isoTOP-ABPP ratio P46109_C249: 20.0
[2]; 200 μM, insitu, 231
  isoTOP-ABPP ratio, cysteine Q9P0J1_C149: 18.0
[7]; 200 μM, insitu, 231
  isoTOP-ABPP ratio Q9BRF8_C54: 3.8
[3]; 200 μM, insitu, 231
  isoTOP-ABPP ratio, cysteine Q2NL82_C126: 4.9
[4]; 200 μM, insitu, 231
  isoTOP-ABPP ratio Q9NQ88_C114: 2.1
  isoTOP-ABPP ratio Q9NQ88_C161: 4.6
[4]; 200 μM, insitu, ramos
  isoTOP-ABPP ratio Q9NQ88_C161: 2.1
[5]
  isoTOP-ABPP ratio, cysteine O43175_C369: 2.4

## Cn1cc(S(=O)(=O)N2CCOCC2)cc1C(=O)NC(=O)CCl [compound 11]
[6]; 100 μM in situ 231
  isoTOP-ABPP ratio Q96RS6_C376: 0.8
[2]; 100 μM in situ 231
  isoTOP-ABPP ratio, cysteine Q9P0J1_C149: 1.4
[7]; 100 μM in situ 231
  isoTOP-ABPP ratio Q9BRF8_C54: 1.0
[4]; 100 μM in situ 231
  isoTOP-ABPP ratio Q9NQ88_C114: 0.8
  isoTOP-ABPP ratio Q9NQ88_C161: 0.9

## O=C(CCl)NC(=O)NC12CC3CC(CC(C3)C1)C2 [compound 12]
[6]; 200 μM, insitu, 231
  isoTOP-ABPP ratio Q96RS6_C376: 1.1
[1]; 231
  isoTOP-ABPP ratio P46109_C249: 20.0
[2]; 200 μM, insitu, 231
  isoTOP-ABPP ratio, cysteine Q9P0J1_C149: 18.5
[7]; 200 μM, insitu, 231
  isoTOP-ABPP ratio Q9BRF8_C54: 1.2
[3]; 200 μM, insitu, 231
  isoTOP-ABPP ratio, cysteine Q2NL82_C126: 20.0

## O=C(CCl)NCCc1c[nH]c2ccccc12 [compound 13]
[6]; 200 μM, insitu, 231
  isoTOP-ABPP ratio Q96RS6_C376: 0.7
[6]; 200 μM, insitu, ramos
  isoTOP-ABPP ratio Q96RS6_C376: 1.2
[1]; ramos
  isoTOP-ABPP ratio P46109_C249: 1.8
[7]; 200 μM, insitu, 231
  isoTOP-ABPP ratio Q9BRF8_C54: 1.4
[4]; 200 μM, insitu, 231
  isoTOP-ABPP ratio Q9NQ88_C114: 1.1
  isoTOP-ABPP ratio Q9NQ88_C161: 1.1
[4]; 200 μM, insitu, ramos
  isoTOP-ABPP ratio Q9NQ88_C114: 1.2
  isoTOP-ABPP ratio Q9NQ88_C161: 1.5
[5]
  isoTOP-ABPP ratio, cysteine O43175_C369: 2.0
